Results taken from ChEMBL document CHEMBL1127021, “Structure-activity relationship of a series of phenylureas linked to 4-phenylimidazole. Novel potent inhibitors of acyl-CoA:cholesterol O-acyltransferase with antiatherosclerotic activity. 2” (J Med Chem, 1993).

How the values were obtained:
[1] = biological target: T1, Acyl-CoA:cholesterol acyltransferase (Oryctolagus cuniculus, UniProt Q95214); assay: Tested for inhibition against Acyl coenzyme A:cholesterol acyltransferase derived from rabbit aorta homogenate (>, denotes no effect at the concentration indicated)
T1 sequence (Q95214 whole entry): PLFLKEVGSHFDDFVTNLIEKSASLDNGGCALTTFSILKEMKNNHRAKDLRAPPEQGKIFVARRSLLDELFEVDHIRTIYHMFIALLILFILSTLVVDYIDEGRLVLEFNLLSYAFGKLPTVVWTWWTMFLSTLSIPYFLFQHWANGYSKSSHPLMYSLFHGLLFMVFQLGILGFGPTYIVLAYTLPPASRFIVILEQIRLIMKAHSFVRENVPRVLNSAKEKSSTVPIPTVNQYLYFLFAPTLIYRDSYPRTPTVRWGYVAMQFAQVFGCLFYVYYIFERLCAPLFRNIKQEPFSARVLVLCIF

[2] = biological target: T2, O-acyltransferase (Oryctolagus cuniculus, UniProt G1SFD9); assay: Inhibition against acyl coenzyme A:cholesterol acyltransferase derived from rabbit intestine microsomes
T2 sequence (G1SFD9 1-524): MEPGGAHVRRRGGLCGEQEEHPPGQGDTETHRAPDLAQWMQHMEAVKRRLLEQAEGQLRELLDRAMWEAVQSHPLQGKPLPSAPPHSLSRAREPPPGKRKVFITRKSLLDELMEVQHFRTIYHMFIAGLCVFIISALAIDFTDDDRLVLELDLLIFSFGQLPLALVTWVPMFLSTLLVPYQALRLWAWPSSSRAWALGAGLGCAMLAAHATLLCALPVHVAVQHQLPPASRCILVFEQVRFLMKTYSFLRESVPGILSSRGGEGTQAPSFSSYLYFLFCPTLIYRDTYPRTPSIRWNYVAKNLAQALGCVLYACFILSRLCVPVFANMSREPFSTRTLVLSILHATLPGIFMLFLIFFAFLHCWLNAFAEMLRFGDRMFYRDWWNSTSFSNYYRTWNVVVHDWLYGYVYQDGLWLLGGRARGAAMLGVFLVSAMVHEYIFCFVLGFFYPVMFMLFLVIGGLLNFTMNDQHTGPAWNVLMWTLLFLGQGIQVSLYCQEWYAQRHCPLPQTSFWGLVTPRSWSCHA

[3] = biological target: T1, Acyl-CoA:cholesterol acyltransferase; assay: Inhibition against acyl coenzyme A:cholesterol acyltransferase derived from rabbit aorta homogenate; type: tissue-based
[4] = system: Rattus norvegicus; assay: Cholesterol lowering activity in rats after a dose of 1 mg/kg once a day for 2 days; type: functional
[5] = system: Rattus norvegicus; assay: Tested for cholesterol lowering activity in rats after a dose of 4 mg/kg once a day for 2 days (at a dose of 1 mg/kg once a day for 2 days); type: functional
[6] = organism: Rattus norvegicus; assay: Tested for hypocholesterolemic activity required to decrease serum total cholesterol; type: functional
[7] = system: Rattus norvegicus; assay: Cholesterol lowering activity in rats after a dose of 4 mg/kg once a day for 2 days; type: functional
[8] = biological target: T2, O-acyltransferase; assay: Tested for inhibition against Acyl coenzyme A:cholesterol acyltransferase derived from rabbit intestine microsomes (>, denotes no effect at the concentration indicated)

Row | IC50 [1] | IC50 [2] | IC50 [3] | IC50 [8] | Structure (SMILES) | Cholesterol reduction [4] | Cholesterol reduction [5] | ED30 [6] | Cholesterol reduction [7]
1 | > 1000 nM | 340 nM | – | – | CCOCCNC(=O)Nc1c(C)cccc1OCCCn1cnc(-c2ccccc2)c1C | – | – | – | –
2 | – | 50 nM | 120 nM | – | CCCCCNC(=O)Nc1c(C)cccc1OCCCn1cnc(-c2ccccc2)c1C | -38% | -51% | – | –
3 | – | 130 nM | 12 nM | – | CCCCNC(=O)Nc1c(C)cccc1OCCCn1cnc(-c2ccccc2)c1C(C)C | -52% | – | 0.4 mg/kg | –
4 | – | – | 160 nM | – | CCCCNC(=O)Nc1c(C)cccc1OCCCn1cnc(-c2ccccc2)c1CC | -46% | – | 0.5 mg/kg | –
5 | – | – | – | – | CCCCCCCN(Cc1ccc(CC(C)(C)C)cc1)C(=O)Nc1ccc(F)cc1F [CL-277082] | – | – | 1.5 mg/kg | –
6 | > 1000 nM | 300 nM | – | – | COCCCNC(=O)Nc1c(C)cccc1OCCCn1cnc(-c2ccccc2)c1C | – | – | – | –
7 | – | 290 nM | 120 nM | – | CCCCCNC(=O)Nc1c(C)cccc1OCCCn1cnc(-c2ccc(F)cc2F)c1 | -23% | – | – | -48%
8 | – | 100 nM | 180 nM | – | Cc1cccc(OCCCn2cnc(-c3ccccc3)c2C)c1NC(=O)NC1CCCCC1 | -42% | – | – | -53%
9 | – | – | 3300 nM | > 1000 nM | CCCCCNC(=O)Nc1c(CO)cccc1OCCCn1cnc(-c2ccccc2)c1C | – | – | – | –
10 | – | – | – | – | CCCCCNC(=O)Nc1c(OCCCn2cnc(-c3ccccc3)c2C)cccc1N(C)C | – | – | 1.9 mg/kg | -42%
11 | – | 180 nM | 31 nM | – | CCCCCNC(=O)Nc1c(C)cccc1OCCCn1cnc(-c2ccccc2)c1C(C)C | -30% | – | – | -49%
12 | – | 84 nM | 68 nM | – | CCCCCCNC(=O)Nc1c(C)cccc1OCCCn1cnc(-c2ccccc2)c1C | -43% | – | – | -46%
13 | – | 210 nM | 170 nM | – | CCCCCNC(=O)Nc1c(C)cccc1OCCCn1cnc(-c2ccccc2[N+](=O)[O-])c1 | -46% | – | – | -66%
14 | – | 540 nM | 120 nM | – | CCCCCNC(=O)Nc1c(C)cccc1OCCCn1cnc(-c2ccccc2)c1CSC | -20% | – | – | -33%
15 | – | 210 nM | 200 nM | – | CCCCCNC(=O)Nc1c(C)cccc1OCCCn1cnc(-c2ccccc2)c1CO | -29% | – | – | -55%
